Results published in patent US9434711B2 (Janssen Pharmaceutica, NV, priority 2007, dated 2016).

Biological target: canine TRPM8 (Canis lupus familiaris, UniProt Q1A7N1)
Experiment: In Vitro Canine TRPM8 Functional Assay (Ca2+ fluorescence, icilin activation)
Type: cell-based
Details: for IC50: HEK293 cells stably expressing canine TRPM8, icilin activation, eight-point dose-response, read-out: IC50; for inhibition at 0.2 µM / % Inh @ 0.2 (μM): compound at 0.2 μM, canine TRPM8, icilin activation; for inhibition at 0.2 µM: read-out: % Inh @ 0.2
Procedure, shortened: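 Readout is the intracellular Ca2+ fluorescence change, measured by FLIPR or FDSS, in HEK293 cells stably expressing canine TRPM8. Potency (EC50 or IC50) is fitted from eight concentrations averaged over quadruplicate wells.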

Sequence of canine TRPM8 (Q1A7N1 1-1104): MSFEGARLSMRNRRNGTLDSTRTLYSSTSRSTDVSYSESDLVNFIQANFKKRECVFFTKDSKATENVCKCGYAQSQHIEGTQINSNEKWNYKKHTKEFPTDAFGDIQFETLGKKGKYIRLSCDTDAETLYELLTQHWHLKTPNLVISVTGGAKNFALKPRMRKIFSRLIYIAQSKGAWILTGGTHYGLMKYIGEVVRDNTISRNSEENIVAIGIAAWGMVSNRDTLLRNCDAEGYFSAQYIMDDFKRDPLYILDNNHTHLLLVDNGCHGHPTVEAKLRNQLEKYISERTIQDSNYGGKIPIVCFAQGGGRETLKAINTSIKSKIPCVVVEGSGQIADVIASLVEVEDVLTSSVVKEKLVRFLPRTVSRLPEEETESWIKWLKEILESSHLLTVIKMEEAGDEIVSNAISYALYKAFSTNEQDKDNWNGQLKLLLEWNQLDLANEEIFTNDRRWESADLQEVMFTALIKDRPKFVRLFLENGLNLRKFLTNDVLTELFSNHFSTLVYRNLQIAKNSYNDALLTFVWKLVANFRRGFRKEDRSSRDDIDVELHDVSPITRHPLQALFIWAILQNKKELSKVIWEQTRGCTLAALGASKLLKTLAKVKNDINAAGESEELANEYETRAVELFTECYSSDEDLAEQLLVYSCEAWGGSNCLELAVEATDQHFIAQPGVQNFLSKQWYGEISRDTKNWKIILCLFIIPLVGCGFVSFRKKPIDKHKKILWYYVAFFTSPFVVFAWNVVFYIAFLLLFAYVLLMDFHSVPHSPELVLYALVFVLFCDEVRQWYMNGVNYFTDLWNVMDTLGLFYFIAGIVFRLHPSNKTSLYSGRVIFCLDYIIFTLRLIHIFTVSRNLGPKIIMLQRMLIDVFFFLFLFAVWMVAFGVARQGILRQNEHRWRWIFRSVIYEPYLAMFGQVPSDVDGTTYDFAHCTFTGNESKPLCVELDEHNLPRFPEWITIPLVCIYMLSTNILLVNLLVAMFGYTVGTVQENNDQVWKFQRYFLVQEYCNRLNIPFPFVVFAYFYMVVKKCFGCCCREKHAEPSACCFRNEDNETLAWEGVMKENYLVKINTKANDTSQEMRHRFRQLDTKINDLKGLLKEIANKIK

Compound: Cc1c(N(CCCC(F)(F)F)S(=O)(=O)c2ccc(Oc3ccncc3)cc2)sc2ccccc12 [Compound 372, N-(3-Methyl-benzo[b]thiophen-2-yl)-N-(4,4,4-trifluoro-butyl)-4-(pyridin-4-yloxy)-benzenesulfonamide]
- IC50: 27 nM
- inhibition at 0.2 µM: 91%

Compound: Cc1c(N(CCCC(F)(F)F)S(=O)(=O)c2ccc(Oc3cccnc3)cc2)sc2ccccc12 [Compound 373, N-(3-Methyl-benzo[b]thiophen-2-yl)-N-(4,4,4-trifluoro-butyl)-4-(pyridin-3-yloxy)-benzenesulfonamide]
- IC50: 123 nM
- inhibition at 0.2 µM: 77%

Compound: Cc1c(N(Cc2ccc(F)c(C(F)(F)F)c2)S(=O)(=O)c2ccc(C(C)(C)O)cc2)sc2ccccc12 [Compound 374, N-(3-Methyl-benzo[b]thiophen-2-yl)-N-(4-fluoro-3-trifluoromethyl-benzyl)-4-(1-hydroxy-1-methyl-ethyl)-benzenesulfonamide]
- IC50: 4 nM
- inhibition at 0.2 µM: 89%

Compound: COC(=O)c1cccc(S(=O)(=O)N(Cc2ccc(F)c(C(F)(F)F)c2)c2sc3cc(F)ccc3c2C)c1 [Compound 375, N-(6-Fluoro-3-methyl-benzo[b]thiophen-2-yl)-N-(4-fluoro-3-trifluoromethyl-benzyl)-3-carbomethoxy-benzenesulfonamide]
- IC50: 37 nM
- inhibition at 0.2 µM: 79%

Compound: Cc1c(N(Cc2ccc(F)c(C(F)(F)F)c2)S(=O)(=O)c2cccc(C(=O)O)c2)sc2cc(F)ccc12 [Compound 376, N-(6-Fluoro-3-methyl-benzo[b]thiophen-2-yl)-N-(4-fluoro-3-trifluoromethyl-benzyl)-3-carboxy-benzenesulfonamide]
- IC50: 26 nM
- inhibition at 0.2 µM: 85%

Compound: CSc1ncccc1S(=O)(=O)N(Cc1ccc(F)c(C(F)(F)F)c1)c1sc2ccccc2c1C [Compound 377, N-(3-Methyl-benzo[b]thiophen-2-yl)-N-(4-fluoro-3-trifluoromethyl-benzyl)-2-thiomethyl-pyridin-3-yl-sulfonamide]
- % Inh @ 0.2 (μM): 65%

Compound: COC(=O)c1cccc(CN(c2cc3ccccc3s2)S(=O)(=O)c2cccnc2)c1 [Compound 379, N-(Benzo[b]thiophen-2-yl)-N-(3-carbomethoxy-benzyl)-pyridin-3-ylsulfonamide]
- inhibition at 0.2 µM: 54%

Compound: COC(=O)c1ccc(CN(c2cc3ccccc3s2)S(=O)(=O)c2cccnc2)cc1 [Compound 380, N-(Benzo[b]thiophen-2-yl)-N-(4-carbomethoxy-benzyl)-pyridin-3-ylsulfonamide]
- inhibition at 0.2 µM: 24%

Compound: O=S(=O)(c1ccccc1)N(Cc1ccc(F)c(C(F)(F)F)c1)c1sc2ccccc2c1CN1CCCC1 [Compound 381, N-(4-Fluoro-3-trifluoromethyl-benzyl)-N-(3-pyrrolidin-1-yl-methyl-benzo[b]thiophen-2-yl)-benzenesulfonamide]
- % Inh @ 0.2 (μM): 20%

Compound: CCCCN(c1cc2ccccc2s1)S(C)(=O)=O [Compound 382, N-(Benzo[b]thiophen-2-yl)-N-(butyl)-methanesulfonamide]
- inhibition at 0.2 µM: 17%

Compound: O=S(=O)(c1cccnc1)N(CCCC(F)(F)F)c1cc2ccccc2s1 [Compound 383, N-(Benzo[b]thiophen-2-yl)-N-(4,4,4-trifluoro-butyl)-pyridin-3-ylsulfonamide]
- inhibition at 0.2 µM: 49%

Compound: Cc1c(N(CCCC(F)(F)F)S(=O)(=O)c2ccc3[nH]c(=O)oc3c2)sc2ccccc12 [Compound 384, N-(3-Methyl-benzo[b]thiophen-2-yl)-N-(4,4,4-trifluoro-butyl)-2-oxo-2,3-dihydro-benzooxazol-6-yl-sulfonamide]
- IC50: 17 nM
- inhibition at 0.2 µM: 96%

Compound: CC(=O)c1c(N(CCC(F)(F)F)S(=O)(=O)c2ccc(C(=O)O)cc2)sc2ccccc12 [Compound 385, N-(3-Acetyl-benzo[b]thiophen-2-yl)-N-(3,3,3-trifluoro-propyl)-4-carboxy-benzenesulfonamide]
- inhibition at 0.2 µM: 54%

Compound: CC(=O)c1c(N(Cc2ccc(F)c(C(F)(F)F)c2)S(=O)(=O)c2ccc(Br)cc2)sc2ccccc12 [Compound 386, N-(3-Acetyl-benzo[b]thiophen-2-yl)-4-bromo-N-(4-fluoro-3-trifluoromethyl-benzyl)benzenesulfonamide]
- IC50: 12.8 nM
- inhibition at 0.2 µM: 101%

Compound: CC(=O)c1c(N(Cc2ccc(F)c(C(F)(F)F)c2)S(=O)(=O)c2ccc(C#N)cc2)sc2ccccc12 [Compound 387, N-(3-Acetyl-benzo[b]thiophen-2-yl)-4-cyano-N-(4-fluoro-3-trifluoromethyl-benzyl)-benzenesulfonamide]
- IC50: 31 nM
- inhibition at 0.2 µM: 98%

Compound: CC(C)(O)c1c(N(Cc2ccc(F)c(C(F)(F)F)c2)S(=O)(=O)c2ccc(Br)cc2)sc2ccccc12 [Compound 388]
- IC50: 19 nM
- % Inh @ 0.2 (μM): 97%

Compound: CC(=O)c1ccc(S(=O)(=O)N(Cc2ccc(F)c(C(F)(F)F)c2)c2sc3ccccc3c2C(C)(C)O)cc1 [Compound 389, 4-Acetyl-N-(4-fluoro-3-trifluoromethylbenzyl)-N-(3-(1-hydroxy-1-methyl-ethyl)-benzo[b]thiophen-2-yl)-benzenesulfonamide]
- IC50: 10 nM
- inhibition at 0.2 µM: 97%

Compound: CCN(c1sc2ccccc2c1Br)S(=O)(=O)c1ccc(C(=O)O)cc1 [Compound 390, N-(3-Bromo-benzo[b]thiophen-2-yl)-N-(ethyl)-4-carboxy-benzenesulfonamide]
- inhibition at 0.2 µM: 69%

Compound: CCCN(c1sc2ccccc2c1Br)S(=O)(=O)c1ccc(C(=O)O)cc1 [Compound 391, N-(3-Bromo-benzo[b]thiophen-2-yl)-N-(propyl)-4-carboxy-benzenesulfonamide]
- IC50: 47 nM
- inhibition at 0.2 µM: 93%

Compound: CCCCCN(c1sc2ccccc2c1Br)S(=O)(=O)c1ccc(C(=O)O)cc1 [Compound 392, N-(3-Bromo-benzo[b]thiophen-2-yl)-N-(pentyl)-4-carboxy-benzenesulfonamide]
- IC50: 7 nM
- inhibition at 0.2 µM: 93%

Compound: CCCCCCN(c1sc2ccccc2c1Br)S(=O)(=O)c1ccc(C(=O)O)cc1 [Compound 393, N-(3-Bromo-benzo[b]thiophen-2-yl)-N-(hexyl)-4-carboxy-benzenesulfonamide]
- IC50: 5 nM
- inhibition at 0.2 µM: 95%

Compound: O=C(O)c1ccc(S(=O)(=O)N(CCCC(F)(F)F)c2sc3ccccc3c2Br)cc1 [Compound 394, N-(3-Bromo-benzo[b]thiophen-2-yl)-N-(4,4,4-trifluoro-butyl)-4-carboxy-benzenesulfonamide]
- IC50: 9 nM
- inhibition at 0.2 µM: 101%

Compound: CC(C)(C)OCCCN(c1sc2ccccc2c1Br)S(=O)(=O)c1ccc(C(=O)O)cc1 [Compound 397, N-(3-Bromo-benzo[b]thiophen-2-yl)-N-(3-tert-butoxypropyl)-4-carboxy-benzenesulfonamide]
- IC50: 8 nM
- inhibition at 0.2 µM: 95%

Compound: Cc1c(N(CC2CC2)S(=O)(=O)c2ccc(C(=O)O)cc2)sc2ccccc12 [Compound 399, N-(3-Methyl-benzo[b]thiophen-2-yl)-N-(cyclopropylmethyl)-4-carboxy-benzenesulfonamide]
- IC50: 36 nM
- inhibition at 0.2 µM: 93%

Compound: Cc1c(N(CCOC(C)(C)C)S(=O)(=O)c2ccc(C(=O)O)cc2)sc2ccccc12 [Compound 401, N-(3-Methyl-benzo[b]thiophen-2-yl)-N-(2-tert-butoxy-ethyl)-4-carboxy-benzenesulfonamide]
- IC50: 5 nM
- inhibition at 0.2 µM: 91%

Compound: CCN(c1sc2ccccc2c1C)S(=O)(=O)c1ccc(C(=O)OC)cc1 [Compound 402, N-(3-Methyl-benzo[b]thiophen-2-yl)-N-(ethyl)-4-carbomethoxy-benzenesulfonamide]
- inhibition at 0.2 µM: 38%

Compound: CCN(c1sc2ccccc2c1C)S(=O)(=O)c1ccc(C(=O)O)cc1 [Compound 403, N-(3-Methyl-benzo[b]thiophen-2-yl)-N-(ethyl)-4-carboxy-benzenesulfonamide]
- inhibition at 0.2 µM: 52%

Compound: CCCN(c1sc2ccccc2c1C)S(=O)(=O)c1ccc(C(=O)O)cc1 [Compound 404, N-(3-Methyl-benzo[b]thiophen-2-yl)-N-(propyl)-4-carboxy-benzenesulfonamide]
- inhibition at 0.2 µM: 96%

Compound: COC(=O)c1cccc(CN(c2sc3ccccc3c2Br)S(=O)(=O)c2cccnc2)c1 [Compound 405, N-(3-Bromo-benzo[b]thiophen-2-yl)-N-(3-carbomethoxy-benzyl)-pyridin-3-ylsulfonamide]
- IC50: 36 nM
- inhibition at 0.2 µM: 95%

Compound: COC(=O)c1ccc(CN(c2sc3ccccc3c2Br)S(=O)(=O)c2cccnc2)cc1 [Compound 406, N-(3-Bromo-benzo[b]thiophen-2-yl)-N-(4-carbomethoxy-benzyl)-pyridin-3-ylsulfonamide]
- inhibition at 0.2 µM: 66%

Compound: O=S(=O)(c1cccnc1)N(CCCC(F)(F)F)c1sc2ccccc2c1Br [Compound 407, N-(3-Bromo-benzo[b]thiophen-2-yl)-N-(4,4,4-trifluoro-butyl)-pyridin-3-yl-sulfonamide]
- IC50: 43 nM
- inhibition at 0.2 µM: 96%

Compound: O=S(=O)(c1cccnc1)N(CCCC(F)(F)F)c1sc2ccccc2c1Cl [Compound 408, N-(3-Chloro-benzo[b]thiophen-2-yl)-N-(4,4,4-trifluoro-butyl)-3-pyridin-3-yl-sulfonamide]
- IC50: 122 nM
- % Inh @ 0.2 (μM): 78%

Compound: Cc1c(N(CCCC(F)(F)F)S(=O)(=O)c2ccc(C(=O)O)cc2)sc2ccccc12 [Compound 410, N-(3-Methyl-benzo[b]thiophen-2-yl)-N-(4,4,4-trifluoro-butyl)-4-carboxy-benzenesulfonamide]
- IC50: 17 nM
- inhibition at 0.2 µM: 96%

Compound: N#Cc1ccc(S(=O)(=O)N(Cc2ccc(F)c(C(F)(F)F)c2)c2cc3ccccc3s2)cc1 [Compound 411, N-(Benzo[b]thiophen-2-yl)-N-(4-fluoro-3-trifluoromethyl-benzyl)-4-cyano-benzenesulfonamide]
- inhibition at 0.2 µM: 43%

Compound: COC(=O)c1ccc(S(=O)(=O)N(CCCC(F)(F)F)c2sc3cc(F)ccc3c2C)cc1 [Compound 412, N-(6-Fluoro-3-methyl-benzo[b]thiophen-2-yl)-N-(4,4,4-trifluoro-butyl)-4-carbomethoxybenzenesulfonamide]
- inhibition at 0.2 µM: 13%
